What all share (experiment): biochemical
Holding throughout (set-up): KINOMEscan active-site-directed competition binding panel, 468 kinases, percent of DMSO control at 1 uM
What all share (details): KINOMEscan binding, percent of DMSO control; read-out: Ctrl%

For assay [1], the target named is T1, RSK1(Kin.Dom.2-C-terminal) (Homo sapiens, UniProt Q15418).
T1 construct: gene RPS6KA1; Kin.Dom.2-C-terminal

The target in assay [2] is AKT2 (Homo sapiens, UniProt P31751).
The target in assay [3] is WEE1 (Homo sapiens, UniProt P30291).
Assay [4] concerns the target EGFR(T790M) (Homo sapiens, UniProt P00533, T790M).
In assay [5] the target is PLK4 (Homo sapiens, UniProt O00444).
In assay [6] the target is BRSK2 (Homo sapiens, UniProt Q8IWQ3).
The target of assay [7] is FLT3(ITD) (Homo sapiens, UniProt P36888, ITD).
For assay [8], the target named is MAP4K3 (Homo sapiens, UniProt Q8IVH8).
For assay [9], the target named is BRAF (Homo sapiens, UniProt P15056).
The target of assay [10] is CDK9 (Homo sapiens, UniProt P50750).
Assay [11] addresses HASPIN (Homo sapiens, UniProt Q8TF76).
Assay [12] addresses T2, MLK1 (Homo sapiens, UniProt P80192).
T2 construct: gene MAP3K9

Assay [13] has as its target MYO3B (Homo sapiens, UniProt Q8WXR4).
Assay [14] has as its target CSNK1G1 (Homo sapiens, UniProt Q9HCP0).
Assay [15] addresses T3, MST2 (Homo sapiens, UniProt Q13188).
T3 construct: gene STK3

Assay [16] concerns the target AURKC (Homo sapiens, UniProt Q9UQB9).
In assay [17] the target is MARK1 (Homo sapiens, UniProt Q9P0L2).
The target of assay [18] is PKMYT1 (Homo sapiens, UniProt Q99640).
Assay [19] deals with T4, MEK3 (Homo sapiens, UniProt P46734).
T4 construct: gene MAP2K3

For assay [20], the target named is CSNK1G2 (Homo sapiens, UniProt P78368).
The target in assay [21] is INSRR (Homo sapiens, UniProt P14616).
Assay [22] concerns the target FER (Homo sapiens, UniProt P16591).
For assay [23], the target named is CSNK2A2 (Homo sapiens, UniProt P19784).
In assay [24] the target is T5, JNK1 (Homo sapiens, UniProt P45983).
T5 construct: gene MAPK8

Sequence of AKT2 (P31751 whole entry): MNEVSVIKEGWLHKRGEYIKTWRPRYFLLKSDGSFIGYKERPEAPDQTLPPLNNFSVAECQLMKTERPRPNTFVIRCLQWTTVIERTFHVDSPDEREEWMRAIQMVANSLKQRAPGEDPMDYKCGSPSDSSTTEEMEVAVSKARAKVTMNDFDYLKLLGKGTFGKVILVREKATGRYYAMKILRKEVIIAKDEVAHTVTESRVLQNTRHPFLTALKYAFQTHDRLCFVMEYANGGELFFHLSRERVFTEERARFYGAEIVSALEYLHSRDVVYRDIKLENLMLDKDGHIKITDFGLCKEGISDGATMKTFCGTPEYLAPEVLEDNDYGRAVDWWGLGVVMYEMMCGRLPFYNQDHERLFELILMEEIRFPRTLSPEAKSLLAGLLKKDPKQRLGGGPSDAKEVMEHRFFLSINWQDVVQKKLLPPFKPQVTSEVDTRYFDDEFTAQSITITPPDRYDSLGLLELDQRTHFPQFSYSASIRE
T3 sequence (Q13188 whole entry): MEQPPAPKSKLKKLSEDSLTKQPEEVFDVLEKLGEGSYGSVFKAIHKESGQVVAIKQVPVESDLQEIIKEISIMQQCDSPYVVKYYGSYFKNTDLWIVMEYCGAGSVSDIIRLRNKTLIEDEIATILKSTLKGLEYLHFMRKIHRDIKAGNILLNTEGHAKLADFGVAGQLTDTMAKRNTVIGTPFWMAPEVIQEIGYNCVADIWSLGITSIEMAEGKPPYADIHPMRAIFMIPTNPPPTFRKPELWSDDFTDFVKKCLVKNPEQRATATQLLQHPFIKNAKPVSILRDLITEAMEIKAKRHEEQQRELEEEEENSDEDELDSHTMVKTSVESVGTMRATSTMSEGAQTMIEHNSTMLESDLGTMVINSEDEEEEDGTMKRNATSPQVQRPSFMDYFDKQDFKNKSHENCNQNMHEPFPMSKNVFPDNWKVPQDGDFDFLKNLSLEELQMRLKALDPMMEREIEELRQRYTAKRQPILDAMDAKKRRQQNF
Sequence of WEE1 (P30291 whole entry): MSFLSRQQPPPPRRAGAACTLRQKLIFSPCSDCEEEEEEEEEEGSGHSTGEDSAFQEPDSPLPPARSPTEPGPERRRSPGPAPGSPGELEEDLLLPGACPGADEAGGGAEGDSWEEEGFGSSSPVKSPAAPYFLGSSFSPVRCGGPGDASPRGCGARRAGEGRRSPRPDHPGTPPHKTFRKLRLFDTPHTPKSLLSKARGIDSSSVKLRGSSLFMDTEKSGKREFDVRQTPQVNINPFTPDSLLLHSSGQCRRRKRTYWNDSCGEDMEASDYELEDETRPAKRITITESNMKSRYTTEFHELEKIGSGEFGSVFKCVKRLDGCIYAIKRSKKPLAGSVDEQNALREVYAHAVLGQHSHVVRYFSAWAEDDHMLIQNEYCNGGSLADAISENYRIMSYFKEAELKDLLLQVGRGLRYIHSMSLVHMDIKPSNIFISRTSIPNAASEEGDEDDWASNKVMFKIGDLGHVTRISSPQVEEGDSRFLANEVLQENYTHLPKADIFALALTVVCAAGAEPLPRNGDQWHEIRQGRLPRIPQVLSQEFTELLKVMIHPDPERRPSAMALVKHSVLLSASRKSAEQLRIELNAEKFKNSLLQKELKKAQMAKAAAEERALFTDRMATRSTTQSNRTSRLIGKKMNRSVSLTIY
Sequence of INSRR (P14616 whole entry): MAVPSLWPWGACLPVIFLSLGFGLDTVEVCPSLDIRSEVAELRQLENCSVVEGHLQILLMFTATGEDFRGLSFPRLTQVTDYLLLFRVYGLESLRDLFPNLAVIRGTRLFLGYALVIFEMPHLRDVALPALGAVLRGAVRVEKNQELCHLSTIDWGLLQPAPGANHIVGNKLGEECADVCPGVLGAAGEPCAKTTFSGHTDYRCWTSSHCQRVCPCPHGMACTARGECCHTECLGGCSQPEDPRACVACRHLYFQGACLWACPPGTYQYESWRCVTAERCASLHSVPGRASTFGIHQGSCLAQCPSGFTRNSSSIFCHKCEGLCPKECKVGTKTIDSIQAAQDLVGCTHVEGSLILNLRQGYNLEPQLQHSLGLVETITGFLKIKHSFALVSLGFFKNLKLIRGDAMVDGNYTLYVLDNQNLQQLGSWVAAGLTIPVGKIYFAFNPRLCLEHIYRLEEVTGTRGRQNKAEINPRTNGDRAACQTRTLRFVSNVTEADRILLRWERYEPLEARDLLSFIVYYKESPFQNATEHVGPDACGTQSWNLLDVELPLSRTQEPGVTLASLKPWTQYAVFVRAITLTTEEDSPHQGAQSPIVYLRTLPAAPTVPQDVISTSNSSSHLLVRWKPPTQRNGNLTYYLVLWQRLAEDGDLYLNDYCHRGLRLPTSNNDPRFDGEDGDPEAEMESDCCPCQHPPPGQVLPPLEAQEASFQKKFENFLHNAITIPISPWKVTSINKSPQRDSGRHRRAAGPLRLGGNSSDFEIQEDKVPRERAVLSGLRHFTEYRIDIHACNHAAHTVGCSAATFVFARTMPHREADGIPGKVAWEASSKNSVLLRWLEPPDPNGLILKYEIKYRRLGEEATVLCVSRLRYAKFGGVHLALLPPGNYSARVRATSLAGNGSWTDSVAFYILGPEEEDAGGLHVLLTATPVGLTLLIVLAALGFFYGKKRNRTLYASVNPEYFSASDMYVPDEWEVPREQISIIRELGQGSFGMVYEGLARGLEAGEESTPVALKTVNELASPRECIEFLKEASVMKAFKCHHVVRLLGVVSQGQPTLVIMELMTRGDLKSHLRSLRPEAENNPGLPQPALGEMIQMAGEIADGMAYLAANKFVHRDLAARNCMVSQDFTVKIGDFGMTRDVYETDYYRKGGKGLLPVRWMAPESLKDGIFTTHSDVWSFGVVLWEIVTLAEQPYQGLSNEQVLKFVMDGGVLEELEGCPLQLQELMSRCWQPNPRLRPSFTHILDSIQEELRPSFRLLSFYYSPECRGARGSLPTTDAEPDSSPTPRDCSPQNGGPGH
Sequence of AURKC (Q9UQB9 whole entry): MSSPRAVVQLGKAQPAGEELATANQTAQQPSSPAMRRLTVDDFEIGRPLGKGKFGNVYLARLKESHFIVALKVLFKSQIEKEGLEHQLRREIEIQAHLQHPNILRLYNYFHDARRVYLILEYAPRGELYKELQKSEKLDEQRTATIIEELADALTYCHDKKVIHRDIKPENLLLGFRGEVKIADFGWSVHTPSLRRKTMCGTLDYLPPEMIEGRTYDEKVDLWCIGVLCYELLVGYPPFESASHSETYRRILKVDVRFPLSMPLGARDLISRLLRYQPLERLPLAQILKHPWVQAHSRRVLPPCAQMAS
Sequence of CSNK2A2 (P19784 whole entry): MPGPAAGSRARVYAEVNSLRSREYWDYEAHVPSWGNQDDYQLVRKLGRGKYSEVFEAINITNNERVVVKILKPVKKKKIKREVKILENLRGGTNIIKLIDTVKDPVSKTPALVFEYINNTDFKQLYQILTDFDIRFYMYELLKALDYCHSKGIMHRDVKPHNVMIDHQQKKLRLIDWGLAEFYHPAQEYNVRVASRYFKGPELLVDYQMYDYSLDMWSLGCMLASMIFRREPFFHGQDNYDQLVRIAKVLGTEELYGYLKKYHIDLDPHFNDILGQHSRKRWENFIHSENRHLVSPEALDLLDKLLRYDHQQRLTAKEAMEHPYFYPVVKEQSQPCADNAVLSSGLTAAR
T1 sequence (Q15418 whole entry): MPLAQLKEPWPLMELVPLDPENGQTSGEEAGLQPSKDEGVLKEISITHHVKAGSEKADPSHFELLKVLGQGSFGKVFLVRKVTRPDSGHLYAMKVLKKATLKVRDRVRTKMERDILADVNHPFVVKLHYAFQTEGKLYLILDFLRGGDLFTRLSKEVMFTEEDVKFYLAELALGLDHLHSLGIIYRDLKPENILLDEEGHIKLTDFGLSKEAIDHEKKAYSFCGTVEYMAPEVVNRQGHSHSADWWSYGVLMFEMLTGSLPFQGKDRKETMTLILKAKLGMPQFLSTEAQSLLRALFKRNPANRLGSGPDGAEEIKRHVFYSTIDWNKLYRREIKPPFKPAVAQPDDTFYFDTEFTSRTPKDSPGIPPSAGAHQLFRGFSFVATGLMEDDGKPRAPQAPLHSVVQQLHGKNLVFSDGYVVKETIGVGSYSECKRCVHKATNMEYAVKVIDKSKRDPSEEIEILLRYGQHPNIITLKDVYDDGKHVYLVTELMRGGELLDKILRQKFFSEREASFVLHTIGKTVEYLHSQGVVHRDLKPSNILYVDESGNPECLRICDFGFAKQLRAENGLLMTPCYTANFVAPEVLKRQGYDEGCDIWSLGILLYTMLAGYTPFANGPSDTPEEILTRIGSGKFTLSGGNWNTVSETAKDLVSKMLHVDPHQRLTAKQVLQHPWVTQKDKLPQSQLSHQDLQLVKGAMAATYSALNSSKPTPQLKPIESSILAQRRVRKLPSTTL
Sequence of CSNK1G1 (Q9HCP0 whole entry): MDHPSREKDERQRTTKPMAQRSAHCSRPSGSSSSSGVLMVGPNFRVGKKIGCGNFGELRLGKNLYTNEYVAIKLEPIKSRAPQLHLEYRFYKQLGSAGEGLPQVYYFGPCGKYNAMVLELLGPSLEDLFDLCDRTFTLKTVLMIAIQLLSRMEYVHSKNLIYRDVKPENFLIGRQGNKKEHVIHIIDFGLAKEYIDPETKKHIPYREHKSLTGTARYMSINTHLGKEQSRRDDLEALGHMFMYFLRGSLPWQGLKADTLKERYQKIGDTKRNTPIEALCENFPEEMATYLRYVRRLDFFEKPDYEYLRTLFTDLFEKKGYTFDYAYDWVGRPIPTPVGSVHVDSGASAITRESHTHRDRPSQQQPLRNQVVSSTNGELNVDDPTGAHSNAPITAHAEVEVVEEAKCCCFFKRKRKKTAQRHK

With `Cc1ccc(NC(=O)c2cccc(C(F)(F)F)c2)cc1Nc1cc(-c2cccnc2)nc2[nH]ccc12` [HZX-02-059], the remaining binding at 1 µM turned out to be 100% in assay [1]; 85% in assay [2]; 95% in assay [3]; 94% in [4]; 91% in assay [5]; 99% in assay [6]. Also, the remaining binding at 1 µM in assay [7] was 79%; in assay [8] it was 97%; in assay [9], 18%; in [10], 100%; in [11], 100%; in [12], 100%. Besides, the remaining binding at 1 µM was determined as 97% in [13]; 83% in assay [14]; 97% in [15]; 75% in assay [16]; 94% in assay [17]; 96% in assay [18]. For the same compound, the remaining binding at 1 µM in assay [19] stood at 83%; in assay [20] it was 96%; in [21], 100%; in assay [22] it was 77%; in [23], 100%; in assay [24] it was 84%.

The values above are taken from paper PMC8799717, “Pharmacological targeting PIKfyve and tubulin as an effective treatment strategy for double-hit lymphoma” (Cell Death Discovery, 2022).
